Measurements from patent US10696691B2, “BACE1 inhibitors” (Hoffmann-La Roche Inc., priority 2015, dated 2020).

What was measured:
[1] = molecular target: T1, BACE1 (Homo sapiens, UniProt P56817); assay: Cellular Aβ-lowering assay (Abeta 40 AlphaLISA, HEK293 APP cells); assay type: cell-based; details: 18-20 hrs incubation, Aβ 40 in culture supernatants, read-out: BACE1 cell act. Aβ40 IC50
T1 construct: endogenous in cells; host or cells: HEK293 APP cells
Description: Cellular Aβ-Lowering Assay:
The Abeta 40 AiphaLISA Assay can be used. The HEK293 APP cells were seeded in 96 well Microtiter plates in cell culture medium (Iscove's, plus 10% (v/v) fetal bovine serum, penicillin/streptomycin) to about 80% confluency and the compounds were added at a 3× concentration in ⅓ volume of culture medium (final DMSO concentration was kept at 1% v/v). After 18-20 hrs incubation at 37° C. and 5% CO2 in a humidified incubator, the culture supernatants were harvested for the determination of Aβ 40 concentrations using Perkin-Elmer Human Amyloid beta 1-40 (high specificity) Kit (Cat # AL275C).
In a Perkin-Elmer White Optiplate-384 (Cat #6007290), 2 ul culture supernatants were combined with 2 μl of a 10× AlphaLISA Anti-hABAcceptor beads+Biotinylated Antibody Anti-AD 1-40 Mix (50 μg/mL/5 nM). After 1 hour room temperature incubation, 16 μl of a 1.25× preparation of Streptavidin (SA) Donor beads (25 μg/mL) were added and incubated for 30 minutes in the Dark. Light Emission at 615 nm was then recorded using EnVision-Alpha Reader. Levels of Aβ 40 in the culture supernatants were calculated as percentage of maximum signal (cells treated with 1% DMSO without inhibitor). The IC50 values were calculated using the Excel XLfit software.

[2] = tested on: Aβ40; assay: Lowering of Aβ40 in brain of wild-type mice; assay type: in vivo; details: Mus musculus, po; female C57Bl/6J mice, 30 mg/kg per os, 4 h; brain Aβ40 as percentage of the vehicle group; read-out: Aβ40 (wt mice, brain)
Description: Lowering of Aβ40 in Brain of Wild-Type Mice:
Animals and Housing Conditions.
Animals were maintained in a 12/12 h light/dark cycle, with lights starting at 6 a.m., and experiments were conducted during the light phase, Animal housing and experimental procedures were in line with ethical and legal guidelines and were authorized by local veterinary authorities.
Female C57Bl/6J mice were treated with a dose of 30 mg/kg of the compounds, 3-4 animals per treatment group. The test compound was dissolved in 5% EtOH, 10% Solutol, and was applied per os at 10 mL/kg. After 4 h, the animals were sacrificed and brain and plasma were collected. The brain was cut into halves and immediately frozen on dry ice. Brain was used for measurement of Aβ40 and plasma was used for determination of compound exposure. […] Brain tissue was homogenized in 2% DEA buffer in a Roche MagnaLyser (20″, 4000 rpm) and subsequently centrifuged for 1 h at 100000 g. DEA was reduced to 0.2% in 50 mM NaCl and one-half of the DEA lysate was passed over an Oasis Solid phase extraction plate (Waters; cat. no. 186000679), which had been activated with MeOH and equilibrated in dH2O (1 mL each). After washes in 10% and 30% MeOH (1 mL each), the Aβ-peptides were eluted in 0.8 mL of 2% NH4OH in 90% MeOH. The eluate was dried over a N2 flow, and the dried sample was reconstituted in 30 μL of AlphaLISA assay buffer. Aβ40 was determined by an AlphaLISA assay (Perkin-Elmer). In a white 96-well, half area microplate (Perkin-Elmer cat. no. 6005561), 20 μL of the reconstituted sample were mixed with 5 μL of biotinylated BAP-24 (specific for C-terminus of Aβ40) (Brockhaus, M.; Onmberg, J.; Rohrig, S.; Loetscher, H.; Wittenburg, N.; Baumeister, R.; Jacobsen, H.; Haass, C. Caspasemediated cleavage is not required for the activity of presenilins in amyloidogenesis and NOTCH signaling. NeuroReport 1998, 9, 1481-1486.) stock=4.4 mg/mL, f.c.5.5 μg/mL), and 5 μL 252Q6 acceptor beads (252Q6 antibody, Invitrogen AMB0062) had been previously conjugated with AlphaLISA Acceptor beads (Perkin-Elmer cat. no. 6772002); final dilution 1:500). The mix was incubated for 1 h at RT in the dark. Then 20 μL of Streptavin-coated Donor Beads (Perkin-Elmer cat. no. 6760002, final dilution 1:125) were added and this final mix was incubated in the dark for another 30 min at RT before RFU was measured in an AlphaScreen Reader (Perkin-Elmer Envision 2104). The value obtained for A40 in the treated animals was related to the value in the vehicle group and is given in %. Alternatively a commercial ELISA was used for Aβ40 determination (Wako ELISA: (“Human/Rat 3 Amyloid (40) ELISA kit Wako II”; cat nr. 294-64701) following the manufacture's instruction. Also here the Aβ-lowering efficacy was calculated as percentage of the vehicle group.

T1 sequence (P56817 46-501): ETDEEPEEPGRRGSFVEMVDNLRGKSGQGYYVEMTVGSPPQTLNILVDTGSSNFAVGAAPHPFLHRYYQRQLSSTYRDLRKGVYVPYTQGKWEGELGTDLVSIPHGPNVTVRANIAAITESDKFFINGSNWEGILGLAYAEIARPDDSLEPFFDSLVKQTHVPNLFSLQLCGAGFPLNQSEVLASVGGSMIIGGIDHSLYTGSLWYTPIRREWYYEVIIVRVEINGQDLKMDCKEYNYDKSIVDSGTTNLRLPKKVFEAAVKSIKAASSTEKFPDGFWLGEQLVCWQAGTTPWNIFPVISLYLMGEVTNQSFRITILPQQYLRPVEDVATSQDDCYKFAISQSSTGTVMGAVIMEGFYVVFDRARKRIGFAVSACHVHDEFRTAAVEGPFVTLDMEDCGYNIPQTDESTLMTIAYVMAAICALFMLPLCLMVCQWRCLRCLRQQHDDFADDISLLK

SMILES | IC50 [1] [nM] | response vs control in vivo at 30 mg/kg [2] [%]
Cc1cc(C#N)cnc1C(=O)Nc1ccc(F)c([C@@]2(C)N=C(N)C(C)(C)[S@]3(=O)=NCC[C@H]23)c1 [Example 1BA, N-(3-((3aR,4R,8S)-6-amino-4,7,7-trimethyl-8-oxido-3,3a,4,7-tetrahydro-2H-isothiazolo[1,5-a][1,4]thiazin-4-yl)-4-fluorophenyl)-5-cyano-3-methylpicolinamide] | 3.6 | 73
CC1(C)C(N)=N[C@](C)(c2cc(NC(=O)c3ccc(F)cn3)ccc2F)[C@@H]2CCN=[S@@]21=O [Example 17AB, N-(3-((3aS,4R,8R)-6-amino-4,7,7-trimethyl-8-oxido-3,3a,4,7-tetrahydro-2H-isothiazolo[1,5-a][1,4]thiazin-4-yl)-4-fluorophenyl)-5-fluoropicolinamide] | 0.3 | 40
